Assay results as given in patent US10582709B2, “Butyrolactones as herbicides” (FMC Corporation, priority 2015, dated 2020).

Tests used:
Type in all cases: in vivo
rice (Oryza sativa) = assay: Test B flooded paddy test, rice; conditions: 500 g ai/ha; applied to paddy water at 2-leaf stage; 13 to 15 d; scale 0 no effect to 100 complete control
Method in brief: (§1)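 Plants grown to the 2-leaf stage. At treatment, pots were flooded to 3 cm above the soil, compound was applied directly to the paddy water, and that depth was held throughout. After 13 to 15 d in the greenhouse, response was rated visually against controls on a 0 (no effect) to 100 (complete control) scale.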

[1] = test system: foxtail, giant (giant foxtail, Setaria faberii); assay: Test A preemergence, giant foxtail; conditions: visual rating after approx. 10 d, 0 to 100 scale, 0 no effect, 100 complete control
Method in brief: (§2)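 Visual injury ratings on a 0–100 scale (100 = complete control) made after about 10 d in the greenhouse, relative to untreated plants. Treatment was either a directed soil spray after sowing in loam–sand (preemergence) or foliar on one- to two-leaf plants 2–10 cm tall (postemergence), using surfactant-containing solvent formulations.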

[2] = test system: barnyardgrass (Echinochloa crus-galli); assay: Test A postemergence, barnyardgrass; conditions: visual rating after approx. 10 d, 0 to 100 scale, 0 no effect, 100 complete control
Method in brief: as §2

corn (Zea mays) = assay: Test A postemergence, corn; conditions: visual rating after approx. 10 d, 0 to 100 scale, 0 no effect, 100 complete control
Method in brief: as §2

[3] = test system: wheat (Triticum aestivum); assay: Test A postemergence, wheat; conditions: visual rating after approx. 10 d, 0 to 100 scale, 0 no effect, 100 complete control
Method in brief: as §2

[4] = test system: pigweed (Amaranthus retroflexus); assay: Test A preemergence, pigweed; conditions: visual rating after approx. 10 d, 0 to 100 scale, 0 no effect, 100 complete control
Method in brief: as §2

[5] = test system: ragweed (common ragweed, Ambrosia elatior); assay: Test A preemergence, ragweed; conditions: visual rating after approx. 10 d, 0 to 100 scale, 0 no effect, 100 complete control
Method in brief: as §2

[6] = test system: blackgrass (Alopecurus myosuroides); assay: Test A postemergence, blackgrass; conditions: visual rating after approx. 10 d, 0 to 100 scale, 0 no effect, 100 complete control
Method in brief: as §2

kochia (Kochia scoparia) [7] = assay: Test A preemergence, kochia; conditions: visual rating after approx. 10 d, 0 to 100 scale, 0 no effect, 100 complete control
Method in brief: as §2

[8] = test system: barnyardgrass (Echinochloa crus-galli); assay: Test A preemergence, barnyardgrass; conditions: visual rating after approx. 10 d, 0 to 100 scale, 0 no effect, 100 complete control
Method in brief: as §2

kochia (Kochia scoparia) [9] = assay: Test A postemergence, kochia; conditions: visual rating after approx. 10 d, 0 to 100 scale, 0 no effect, 100 complete control
Method in brief: as §2

[10] = test system: ryegrass, Italian (Italian ryegrass, Lolium multiflorum); assay: Test A preemergence, Italian ryegrass; conditions: visual rating after approx. 10 d, 0 to 100 scale, 0 no effect, 100 complete control
Method in brief: as §2

[11] = test system: ragweed (common ragweed, Ambrosia elatior); assay: Test A postemergence, ragweed; conditions: visual rating after approx. 10 d, 0 to 100 scale, 0 no effect, 100 complete control
Method in brief: as §2

[12] = test system: galium (catchweed bedstraw, Galium aparine); assay: Test A postemergence, galium; conditions: visual rating after approx. 10 d, 0 to 100 scale, 0 no effect, 100 complete control
Method in brief: as §2

[13] = test system: ducksalad (Heteranthera limosa); assay: Test B flooded paddy test, ducksalad; conditions: 500 g ai/ha; applied to paddy water at 2-leaf stage; 13 to 15 d; scale 0 no effect to 100 complete control
Method in brief: as §1

[14] = test system: ryegrass, Italian (Italian ryegrass, Lolium multiflorum); assay: Test A postemergence, Italian ryegrass; conditions: visual rating after approx. 10 d, 0 to 100 scale, 0 no effect, 100 complete control
Method in brief: as §2

[15] = test system: pigweed (Amaranthus retroflexus); assay: Test A postemergence, pigweed; conditions: visual rating after approx. 10 d, 0 to 100 scale, 0 no effect, 100 complete control
Method in brief: as §2

[16] = test system: sedge, umbrella (small-flower umbrella sedge, Cyperus difformis); assay: Test B flooded paddy test, umbrella sedge; conditions: 500 g ai/ha; applied to paddy water at 2-leaf stage; 13 to 15 d; scale 0 no effect to 100 complete control
Method in brief: as §1

[17] = test system: foxtail, giant (giant foxtail, Setaria faberii); assay: Test A postemergence, giant foxtail; conditions: visual rating after approx. 10 d, 0 to 100 scale, 0 no effect, 100 complete control
Method in brief: as §2

[18] = test system: barnyardgrass (Echinochloa crus-galli); assay: Test B flooded paddy test, barnyardgrass; conditions: 500 g ai/ha; applied to paddy water at 2-leaf stage; 13 to 15 d; scale 0 no effect to 100 complete control
Method in brief: as §1

| Compound | Plant response rating, Flood, Rice (rice (Oryza sativa)) | Plant response rating, Foxtail, Giant ([1]; 125 g ai/ha) | Plant response rating, Foxtail, Giant ([1]; 500 g ai/ha) | Plant response rating, Barnyardgrass ([2]; 125 g ai/ha) | Plant response rating, Barnyardgrass ([2]; 500 g ai/ha) | Plant response rating, Corn (corn (Zea mays); 125 g ai/ha) | Plant response rating, Corn (corn (Zea mays); 500 g ai/ha) | Plant response rating, Wheat ([3]; 125 g ai/ha) | Plant response rating, Wheat ([3]; 500 g ai/ha) | Plant response rating, Pigweed ([4]; 125 g ai/ha) | Plant response rating, Pigweed ([4]; 500 g ai/ha) | Plant response rating, Ragweed ([5]; 125 g ai/ha) | Plant response rating, Ragweed ([5]; 500 g ai/ha) | Plant response rating, Blackgrass ([6]; 125 g ai/ha) | Plant response rating, Blackgrass ([6]; 500 g ai/ha) | Plant response rating, Kochia (kochia (Kochia scoparia) [7]; 125 g ai/ha) | Plant response rating, Kochia (kochia (Kochia scoparia) [7]; 500 g ai/ha) | Plant response rating, Barnyardgrass ([8]; 125 g ai/ha) | Plant response rating, Barnyardgrass ([8]; 500 g ai/ha) | Plant response rating, Kochia (kochia (Kochia scoparia) [9]; 125 g ai/ha) | also measured |
| --- | --- | --- | --- | --- | --- | --- | --- | --- | --- | --- | --- | --- | --- | --- | --- | --- | --- | --- | --- | --- | --- |
| O=C(Nc1ccccc1F)C1C(=O)OCC1c1cccc(C(F)(F)F)c1 (racemic) [Compound 11] | 0 | 70 | 80 | 10 | 40 | 0 | 0 | 0 | 20 | 0 | 0 | 0 | 0 | 0 | 0 | 0 | 0 | 30 | 80 | 0 | Plant response rating, Kochia (kochia (Kochia scoparia) [9]; 500 g ai/ha): 0; Plant response rating, Ryegrass, Italian ([10]; 125 g ai/ha): 0; Plant response rating, Ryegrass, Italian ([10]; 500 g ai/ha): 0; Plant response rating, Ragweed ([11]; 125 g ai/ha): 0; Plant response rating, Ragweed ([11]; 500 g ai/ha): 0; Plant response rating, Galium ([12]; 125 g ai/ha): 0; Plant response rating, Galium ([12]; 500 g ai/ha): 0; Plant response rating, Flood, Ducksalad [13]: 0; Plant response rating, Ryegrass, Italian ([14]; 125 g ai/ha): 0; Plant response rating, Ryegrass, Italian ([14]; 500 g ai/ha): 0; Plant response rating, Pigweed ([15]; 125 g ai/ha): 0; Plant response rating, Pigweed ([15]; 500 g ai/ha): 0; Plant response rating, Flood, Sedge, Umbrella [16]: 0; Plant response rating, Foxtail, Giant ([17]; 125 g ai/ha): 20; Plant response rating, Foxtail, Giant ([17]; 500 g ai/ha): 60; Plant response rating, Flood, Barnyardgrass [18]: 0 |
| O=C(Nc1cccc(F)c1F)C1C(=O)OCC1c1ccc(F)c(C(F)(F)F)c1 (racemic) [Compound 15] | 0 | 70 | 90 | 30 | 70 | 0 | 20 | 0 | 20 | 0 | 0 | 0 | 0 | 0 | 20 | 0 | 0 | 40 | 70 | 0 | Plant response rating, Kochia (kochia (Kochia scoparia) [9]; 500 g ai/ha): 0; Plant response rating, Ryegrass, Italian ([10]; 125 g ai/ha): 0; Plant response rating, Ryegrass, Italian ([10]; 500 g ai/ha): 40; Plant response rating, Ragweed ([11]; 125 g ai/ha): 0; Plant response rating, Ragweed ([11]; 500 g ai/ha): 0; Plant response rating, Galium ([12]; 125 g ai/ha): 0; Plant response rating, Galium ([12]; 500 g ai/ha): 20; Plant response rating, Flood, Ducksalad [13]: 0; Plant response rating, Ryegrass, Italian ([14]; 125 g ai/ha): 0; Plant response rating, Ryegrass, Italian ([14]; 500 g ai/ha): 20; Plant response rating, Pigweed ([15]; 125 g ai/ha): 0; Plant response rating, Pigweed ([15]; 500 g ai/ha): 0; Plant response rating, Flood, Sedge, Umbrella [16]: 0; Plant response rating, Foxtail, Giant ([17]; 125 g ai/ha): 30; Plant response rating, Foxtail, Giant ([17]; 500 g ai/ha): 70; Plant response rating, Flood, Barnyardgrass [18]: 0 |
